According to patent US20190211020A1 (Agency for Science, Technology and Research, priority 2012, published 2019):
Structures can show the parent of a compound that is named as a salt.

Each molecule was assayed on eIF4E Ser209 phosphorylation in Hela cells (assay: MNK cell-based assay (AlphaScreen SureFire, eIF4E Ser209 phosphorylation)). Details: Homo sapiens; eIF4E Ser209 phosphorylation, Hela cells, 2 hours; read-out: IC50 Hela.
From the text: It has been reported that Ser209 of eIF4E is solely phosphorylated by the MNK enzymes. The ability of compounds to inhibit this process in Hela cells was investigated using the AlphaScreen SureFire® assay platform from Perkin Elmer (Waltham, Mass.). eIF4E phosphorylated on Ser209 is recognized by two antibodies, the first which is fused to a streptavidin coated donor bead binds to an epitope away from Ser209, the second which is fused to a protein A conjugated acceptor bead binds to phosphorylated Ser209. The phosphorylation of eIF4E on Ser209 brings the two antibodies into close proximity and when excited by a laser a singlet oxygen is released by the donor bead which excites the acceptor bead resulting in the emission of light. This enables the monitoring of eIF4E Ser209 phosphorylation and its inhibition in a cellular context.
Hela cells were seeded into microtitre plates (30,000 cells per well) in 100 μl of culture medium and incubated at 37° C. for 24 hours. The media was then removed by aspiration and the cells resuspended in 50 μl of serum free medium containing the test compound and incubated at 37° C. for 2 hours. The culture medium was again removed by aspiration and the cells resuspended in lysis buffer (provided in Perkin Elmer SureFire® Assay Kit). After agitation at 350 rpm for 20 minutes at 22° C., 4 μl was transferred to a 384 well OptiPlate™ (Perkin Elmer, Waltham, Mass.). To each well was added 5 μl of acceptor mix; the plate was sealed and agitated gently at 22° C. for 2 hours. Then, in subdued light, 2 μl of donor mix was added to each well, the plate was sealed, wrapped in aluminum foil and agitated gently at 22° C. for 2 hours. Emission was measured using the EnVision® plate reader (Perkin Elmer, Waltham, Mass.).
Inhibition constants (IC50) were determined by plotting AlphaScreen signal versus log compound concentration and fitting with a non-linear regression algorithm using GraphPad Prism (GraphPad Software Inc.).

SMILES	IC50 [nM]
CC1(C)CCN(C(=O)c2ccc(-c3cn4c(-c5ccc(C(N)=O)cc5)cnc4cn3)cc2)CC1 [Example 3, 4-(6-(4-(4,4-dimethylpiperidine-1-carbonyl)phenyl)imidazo[1,2-a]pyrazin-3-yl)benzamide]	< 1000
NC(=O)c1ccc(-c2cnc3cnc(-c4ccc(C(=O)N5CCC(N)CC5)cc4)cn23)cc1 [Example 4, 4-(6-(4-(4-aminopiperidine-1-carbonyl)phenyl)imidazo[1,2-a]pyrazin-3-yl) benzamide hydrochloride]	< 1000
CC(C)(C)N1CCN(C(=O)c2ccc(-c3cn4c(-c5ccc(C(N)=O)cc5)cnc4cn3)cc2)CC1 [Example 5, 4-(6-(4-(4-tert-butylpiperazine-1-carbonyl)phenyl)imidazo [1,2-a]pyrazin-3-yl)benzamide]	< 1000
N#Cc1ccc(-c2cnc3cnc(-c4ccc(C(=O)N5CCOCC5)cc4)cn23)cc1 [Example 7, 4-(6-(4-(morpholine-4-carbonyl)phenyl)imidazo[1,2-a]pyrazin-3-yl)benzonitrile]	< 1000
CN(C)C1CCN(C(=O)c2ccc(-c3cn4c(-c5ccc(C#N)cc5)cnc4cn3)cc2)CC1 [Example 21, 4-(6-(4-(4-(dimethylamino)piperidine-1-carbonyl)phenyl)imidazo [1,2-a]pyrazin-3-yl)benzonitrile]	< 1000
CC1(N)CCN(C(=O)c2ccc(-c3cn4c(-c5ccc(C#N)cc5)cnc4cn3)cc2)CC1 [Example 23, 4-(6-(4-(4-amino-4-methylpiperidine-1-carbonyl)phenyl)imidazo[1,2-a]pyrazin-3-yl)benzonitrile hydrochloride salt]	< 1000
N#Cc1ccc(-c2cnc3cnc(-c4ccc(C(=O)N5CCC6(CC5)COC6)cc4)cn23)cc1 [Example 24, 4-(6-(4-(2-oxa-7-azaspiro[3.5]nonane-7-carbonyl)phenyl)imidazo[1,2-a]pyrazin-3-yl)benzonitrile]	< 1000
Cc1cc(-c2cn3c(-c4ccc(C#N)cc4)cnc3cn2)ccc1C(=O)N1CCC(C)(N)CC1 [Example 28, 4-(6-(4-(4-amino-4-methylpiperidine-1-carbonyl)-3-methylphenyl)imidazo [1,2-a]pyrazin-3-yl)benzonitrile]	< 1000
N#Cc1ccc(-c2cnc3cnc(-c4ccc(C(=O)N5CCC(N)CC5)c(F)c4)cn23)cc1 [Example 29, 4-(6-(4-(4-aminopiperidine-1-carbonyl)-3-fluorophenyl)imidazo[1,2-a]pyrazin-3-yl)benzonitrile]	< 1000

Now from value to molecule:

IC50 [nM]	SMILES
< 1000	CNC1CCN(C(=O)c2ccc(-c3cn4c(-c5ccc(C#N)cc5)cnc4cn3)cc2)CC1 [Example 9, 4-(6-(4-(4-(methylamino)piperidine-1-carbonyl)phenyl)imidazo[1,2-a]pyrazin-3-yl)benzonitrile]
< 1000	N#Cc1ccc(-c2cnc3cnc(-c4ccc(C(=O)N5CCN(C6CC6)CC5)cc4)cn23)cc1 [Example 14, 4-(6-(4-(4-cyclopropylpiperazine-1-carbonyl)phenyl)imidazo[1,2-a]pyrazin-3-yl)benzonitrile]
< 1000	N#Cc1ccc(-c2cnc3cnc(-c4ccc(C(=O)N5CCC(O)CC5)cc4)cn23)cc1 [Example 15, 4-(6-(4-(4-hydroxypiperidine-1-carbonyl)phenyl)imidazo [1,2-a]pyrazin-3-yl)benzonitrile]
< 1000	CN1CCCN(C(=O)c2ccc(-c3cn4c(-c5ccc(C#N)cc5)cnc4cn3)cc2)CC1 [Example 17, 4-(6-(4-(4-methyl-1,4-diazepane-1-carbonyl)phenyl)imidazo [1,2-a]pyrazin-3-yl)benzonitrile]
< 1000	CC(C)(C)N1CCN(C(=O)c2ccc(-c3cn4c(-c5ccc(C#N)cc5)cnc4cn3)cc2)CC1 [Example 26, 4-(6-(4-(4-tert-butylpiperazine-1-carbonyl)phenyl)imidazo[1,2-a]pyrazin-3-yl)benzonitrile]
